Experimental data taken from DBAASP.
Converted amounts (≈) assume the structure as drawn. “And” between values parts separate entries of the source, which are not always exact repeats. Identical values can stand only once. Values belong to the molecule of their own block, whether it stands above or below them.

How the values were obtained:
Experiment in all cases: ≥ marks a high value that may be exact or a test limit, other limits are often not marked, values filed in µg/mL are converted to µM
[1] = test system: Bacillus megaterium IBMC
[2] = test system: Corynebacterium stationis CIP 101282
[3] = test system: Escherichia coli SBS 363
[4] = test system: Fusarium oxysporum
[5] = test system: Microbacterium maritypicum CIP 105733T
[6] = test system: Micrococcus luteus A270
[7] = test system: Staphylococcus aureus SG511
[8] = test system: Vibrio aestuarianus CIP 109791
[9] = test system: Vibrio coralliilyticus YB1 CIP 107925
[10] = test system: Vibrio splendidus CIP 107715
[11] = test system: Bacillus subtilis IFO 3143
[12] = test system: Escherichia coli IFO 12734
[13] = test system: Pseudomonas aeruginosa IFO 12582
[14] = test system: Staphylococcus aureus IFO 12732
[15] = test system: Bacillus cereus ATCC 9193
[16] = test system: Campylobacter jejuni ATCC 33291
[17] = test system: Candida albicans
[18] = test system: Clostridium perfringens ATCC 12915
[19] = test system: Pseudomonas aeruginosa ATCC 27853
[20] = test system: Saccharomyces cerevisiae
[21] = test system: Salmonella enterica subsp. enterica serovar Typhimurium ATCC 14028
[22] = test system: Staphylococcus aureus ATCC 29213
[23] = test system: Streptococcus pyogenes ATCC 19615
[24] = test system: Aspergillus flavus KCTC 7375
[25] = test system: Bacillus megaterium KCTC 1096
[26] = test system: Bacillus subtilis KCTC 1918
[27] = test system: Candida albicans KCTC 7121
[28] = test system: Escherichia coli KCTC 1682
[29] = test system: Fusarium oxysporum KCTC 6084
[30] = test system: Proteus vulgaris
[31] = test system: Pseudomonas aeruginosa KCTC 1637
[32] = test system: Staphylococcus aureus KCTC 1621
[33] = test system: Trichosporon beigelii KCTC 7251

MIC [1]: 20 µM (≈ 89.8 µg/mL)
MIC [2]: 10 µM (≈ 44.9 µg/mL)
MIC [3]: 10 µM (≈ 44.9 µg/mL)
MIC [4]: 1.25 µM (≈ 5.61 µg/mL)
MIC [5]: 20 µM (≈ 89.8 µg/mL)
MIC [6]: 1.25 µM (≈ 5.61 µg/mL)
MIC [7]: 5 µM (≈ 22.5 µg/mL)
MIC [8]: 20 µM (≈ 89.8 µg/mL)
MIC [9]: 20 µM (≈ 89.8 µg/mL)
MIC [10]: 20 µM (≈ 89.8 µg/mL)
SMILES: CC[C@H](C)[C@@H]1NC(=O)CNC(=O)[C@H](CCCCN)NC(=O)[C@H](CCCCN)NC(=O)[C@H](CC(=O)O)NC(=O)[C@@H]2CSSC[C@@H]3NC(=O)[C@H](CO)NC(=O)[C@H](Cc4ccc(O)cc4)NC(=O)[C@H](CO)NC(=O)[C@H](CSSC[C@H](NC(=O)[C@H](Cc4ccccc4)NC(=O)[C@H]([C@@H](C)O)NC(=O)[C@H](CCCCN)NC(=O)CNC(=O)[C@H](CCCN=C(N)N)NC(=O)[C@H](CC(C)C)NC(=O)[C@H](CC(=O)O)NC(=O)[C@H](C)NC(=O)[C@@H](NC(=O)[C@H](C)N)CSSC[C@@H](C(=O)N[C@@H](CCCN=C(N)N)C(N)=O)NC(=O)CNC3=O)C(=O)N[C@@H](CCCN=C(N)N)C(=O)N[C@@H](CC(C)C)C(=O)N[C@@H](Cc3ccccc3)C(=O)N[C@@H](CCCCN)C(=O)N[C@@H](CO)C(=O)N[C@@H](Cc3ccc(O)cc3)C(=O)N2)NC(=O)[C@H](CCCCN)NC(=O)[C@H](CC(=O)O)NC(=O)[C@H](CCCN=C(N)N)NC(=O)[C@H](CCSC)NC(=O)[C@H](CC(C)C)NC(=O)[C@H](CCCN=C(N)N)NC(=O)CNC(=O)[C@H](CCCN=C(N)N)NC1=O [ACADLRGKTFCRLFKSYCDKKGIRGRLMRDKCSYSCGCR]

MIC [11]: 0.723 µM (≈ 2 µg/mL)
MIC [12]: 0.723 µM (≈ 2 µg/mL)
MIC [13]: 1.45 µM (≈ 4 µg/mL)
MIC [14]: 0.723 µM (≈ 2 µg/mL)
SMILES: CC(C)C[C@H](NC(=O)[C@H](Cc1ccc(O)cc1)NC(=O)[C@H](Cc1cnc[nH]1)NC(=O)[C@@H](NC(=O)[C@H](CC(C)C)NC(=O)[C@H](C)NC(=O)[C@H](C)NC(=O)[C@H](CCCCN)NC(=O)[C@H](C)NC(=O)[C@@H](NC(=O)[C@H](Cc1cnc[nH]1)NC(=O)[C@H](CCCCN)NC(=O)[C@H](C)NC(=O)[C@@H](NC(=O)[C@H](Cc1cnc[nH]1)NC(=O)[C@H](C)NC(=O)[C@H](C)NC(=O)[C@H](CCCCN)NC(=O)[C@H](CCCCN)NC(=O)[C@H](Cc1ccccc1)NC(=O)[C@H](Cc1ccccc1)NC(=O)[C@H](CO)NC(=O)[C@H](C)NC(=O)[C@H](Cc1c[nH]c2ccccc12)NC(=O)[C@H](C)N)C(C)C)C(C)C)[C@@H](C)O)C(=O)O [AWASFFKKAAHVAKHVAKAALTHYL]

MIC [15]: 29.9 µM (≈ 128 µg/mL)
MIC [16]: 14.9 µM (≈ 63.9 µg/mL)
MIC [17]: 1.87 µM (≈ 7.99 µg/mL)
MIC [18]: 1.87 µM (≈ 7.99 µg/mL)
MIC [19]: > 29.9 µM
MIC [20]: 1.87 µM (≈ 7.99 µg/mL)
MIC [21]: > 29.9 µM and 59.7 µM
MIC [22]: > 29.9 µM and 59.7 µM
MIC [23]: 14.9 µM (≈ 63.9 µg/mL)
SMILES: CC[C@H](C)[C@@H]1NC(=O)[C@H](CC(=O)O)NC(=O)[C@H](C(C)C)NC(=O)[C@H](CO)NC(=O)[C@@H]2CCCN2C(=O)[C@H](C)NC(=O)[C@H](CCCN=C(N)N)NC(=O)[C@@H]2CSSC[C@@H](C(=O)N[C@@H](CCCCN)C(=O)N[C@@H](Cc3c[nH]c4ccccc34)C(=O)N[C@@H](C)C(=O)N3CCC[C@H]3C(=O)N[C@@H](CO)C(=O)N[C@@H](CO)C(=O)O)NC(=O)[C@@H]3CSSC[C@H](NC(=O)[C@H](C)NC(=O)[C@H](CC(C)C)NC(=O)[C@@H](NC(=O)[C@@H](N)CC(=O)O)[C@@H](C)O)C(=O)N[C@@H](CCCN=C(N)N)C(=O)N[C@@H](CCC(N)=O)C(=O)N[C@@H](CO)C(=O)N[C@@H](Cc4cnc[nH]4)C(=O)NCC(=O)N[C@@H](CO)C(=O)N[C@@H](CSSC[C@H](NC(=O)[C@H]([C@@H](C)O)NC(=O)CNC1=O)C(=O)N[C@@H](CCCN=C(N)N)C(=O)NCC(=O)NCC(=O)N[C@@H](CCCCN)C(=O)N[C@@H](CC(C)C)C(=O)N[C@@H](CCCCN)C(=O)N3)C(=O)N[C@@H](CO)C(=O)N[C@@H](Cc1ccccc1)C(=O)N[C@@H](C(C)C)C(=O)N[C@@H](C)C(=O)N2 [DTLACRQSHGSCSFVACRAPSVDIGTCRGGKLKCCKWAPSS]

MIC [24]: ≥ 100 µM
MIC [25]: 3.12 µM (≈ 5.7 µg/mL)
MIC [26]: 1.56 µM (≈ 2.85 µg/mL)
MIC [27]: ≥ 100 µM
MIC [28]: 6.25 µM (≈ 11.4 µg/mL)
MIC [29]: ≥ 100 µM
MIC [30]: 3.12 µM (≈ 5.7 µg/mL)
MIC [31]: 6.25 µM (≈ 11.4 µg/mL)
MIC [32]: 6.25 µM (≈ 11.4 µg/mL)
MIC [33]: ≥ 100 µM
SMILES: CC[C@H](C)[C@H](NC(=O)[C@H](CCCCN)NC(=O)[C@H](CCCCN)NC(=O)[C@H](Cc1ccccc1)NC(=O)[C@H](CC(C)C)NC(=O)[C@H](CCCCN)NC(=O)[C@H](Cc1c[nH]c2ccccc12)NC(=O)[C@@H](N)CCCCN)C(=O)N1CCC[C@H]1C(=O)N[C@@H](CCCCN)C(=O)N[C@@H](Cc1ccccc1)C(=O)N[C@@H](CC(C)C)C(=O)N[C@@H](Cc1cnc[nH]1)C(=O)N[C@@H](CC(C)C)C(N)=O [KWKLFKKIPKFLHL]
